Measured values: the NIST ThermoML archive (doi:10.1021/je200811n)
± gives the expanded uncertainty stated by the source.

Conditions: Hot wire method

F/C=C/C(F)(F)F [trans-1,3,3,3-tetrafluoropropene]
thermal conductivity (241.66 K, 603 kPa, Liquid): 0.09528 ± 0.001 W/m/K
thermal conductivity (241.9 K, 10355 kPa, Liquid): 0.09967 ± 0.0011 W/m/K
thermal conductivity (241.91 K, 15386 kPa, Liquid): 0.1016 ± 0.0011 W/m/K
thermal conductivity (241.91 K, 20710 kPa, Liquid): 0.1039 ± 0.0011 W/m/K
thermal conductivity (241.94 K, 5328 kPa, Liquid): 0.0974 ± 0.0011 W/m/K
thermal conductivity (242 K, 586 kPa, Liquid): 0.09528 ± 0.001 W/m/K
thermal conductivity (242.02 K, 10375 kPa, Liquid): 0.09936 ± 0.0011 W/m/K
thermal conductivity (242.03 K, 15367 kPa, Liquid): 0.1014 ± 0.0011 W/m/K
thermal conductivity (242.03 K, 20714 kPa, Liquid): 0.1037 ± 0.0011 W/m/K
thermal conductivity (242.06 K, 5339 kPa, Liquid): 0.097 ± 0.0011 W/m/K
thermal conductivity (242.11 K, 624 kPa, Liquid): 0.09501 ± 0.001 W/m/K
thermal conductivity (242.35 K, 15378 kPa, Liquid): 0.1015 ± 0.0011 W/m/K
thermal conductivity (242.36 K, 10375 kPa, Liquid): 0.09945 ± 0.0011 W/m/K
thermal conductivity (242.36 K, 20709 kPa, Liquid): 0.1035 ± 0.0011 W/m/K
thermal conductivity (242.41 K, 5308 kPa, Liquid): 0.09704 ± 0.0011 W/m/K
thermal conductivity (242.47 K, 619 kPa, Liquid): 0.095 ± 0.001 W/m/K
thermal conductivity (242.5 K, 10391 kPa, Liquid): 0.09913 ± 0.0011 W/m/K
thermal conductivity (242.5 K, 15372 kPa, Liquid): 0.1012 ± 0.0011 W/m/K
thermal conductivity (242.5 K, 20712 kPa, Liquid): 0.1034 ± 0.0011 W/m/K
thermal conductivity (242.56 K, 5308 kPa, Liquid): 0.09697 ± 0.0011 W/m/K
thermal conductivity (242.62 K, 642 kPa, Liquid): 0.09474 ± 0.001 W/m/K
thermal conductivity (242.85 K, 10385 kPa, Liquid): 0.09922 ± 0.0011 W/m/K
thermal conductivity (242.85 K, 20701 kPa, Liquid): 0.1032 ± 0.0011 W/m/K
thermal conductivity (242.86 K, 15376 kPa, Liquid): 0.1011 ± 0.0011 W/m/K
thermal conductivity (242.92 K, 5304 kPa, Liquid): 0.09701 ± 0.0011 W/m/K
thermal conductivity (243 K, 622 kPa, Liquid): 0.09406 ± 0.001 W/m/K
thermal conductivity (243.02 K, 15383 kPa, Liquid): 0.1009 ± 0.0011 W/m/K
thermal conductivity (243.02 K, 20695 kPa, Liquid): 0.1029 ± 0.0011 W/m/K
thermal conductivity (243.04 K, 10395 kPa, Liquid): 0.09886 ± 0.0011 W/m/K
thermal conductivity (243.1 K, 5316 kPa, Liquid): 0.09673 ± 0.0011 W/m/K
thermal conductivity (243.15 K, Liquid): 0.09448 ± 0.00058 W/m/K
thermal conductivity (243.17 K, 615 kPa, Liquid): 0.09437 ± 0.001 W/m/K
thermal conductivity (243.39 K, 20699 kPa, Liquid): 0.1032 ± 0.0011 W/m/K
thermal conductivity (243.4 K, 15385 kPa, Liquid): 0.1011 ± 0.0011 W/m/K
thermal conductivity (243.42 K, 10393 kPa, Liquid): 0.09892 ± 0.0011 W/m/K
thermal conductivity (243.49 K, 5327 kPa, Liquid): 0.09667 ± 0.0011 W/m/K
thermal conductivity (243.57 K, 643 kPa, Liquid): 0.09442 ± 0.001 W/m/K
thermal conductivity (243.59 K, 20693 kPa, Liquid): 0.1027 ± 0.0011 W/m/K
thermal conductivity (243.6 K, 15397 kPa, Liquid): 0.1006 ± 0.0011 W/m/K
thermal conductivity (243.63 K, 10402 kPa, Liquid): 0.09852 ± 0.0011 W/m/K
thermal conductivity (243.71 K, 5317 kPa, Liquid): 0.09606 ± 0.001 W/m/K
thermal conductivity (243.79 K, 649 kPa, Liquid): 0.09402 ± 0.001 W/m/K
thermal conductivity (251.51 K, 42 kPa, Gas): 0.01026 ± 0.00036 W/m/K
thermal conductivity (251.52 K, 63 kPa, Gas): 0.01037 ± 0.00036 W/m/K
thermal conductivity (251.54 K, 86 kPa, Gas): 0.01039 ± 0.00036 W/m/K
thermal conductivity (251.74 K, 41 kPa, Gas): 0.01015 ± 0.00035 W/m/K
thermal conductivity (251.76 K, 63 kPa, Gas): 0.01019 ± 0.00035 W/m/K
thermal conductivity (251.77 K, 86 kPa, Gas): 0.01024 ± 0.00036 W/m/K
thermal conductivity (251.78 K, 87 kPa, Gas): 0.01029 ± 0.00036 W/m/K
thermal conductivity (251.97 K, 87 kPa, Gas): 0.01006 ± 0.00035 W/m/K
thermal conductivity (252 K, 41 kPa, Gas): 0.01005 ± 0.00035 W/m/K
thermal conductivity (252 K, 62 kPa, Gas): 0.01009 ± 0.00035 W/m/K
thermal conductivity (252 K, 88 kPa, Gas): 0.01003 ± 0.00035 W/m/K
thermal conductivity (252.01 K, 86 kPa, Gas): 0.01018 ± 0.00035 W/m/K
thermal conductivity (252.02 K, 63 kPa, Gas): 0.01 ± 0.00035 W/m/K
thermal conductivity (252.03 K, 87 kPa, Gas): 0.01018 ± 0.00035 W/m/K
thermal conductivity (252.31 K, 87 kPa, Gas): 0.01004 ± 0.00035 W/m/K
thermal conductivity (252.33 K, 88 kPa, Gas): 0.01011 ± 0.00035 W/m/K
thermal conductivity (252.36 K, 63 kPa, Gas): 0.01014 ± 0.00035 W/m/K
thermal conductivity (252.65 K, 86 kPa, Gas): 0.01016 ± 0.00035 W/m/K
thermal conductivity (252.67 K, 87 kPa, Gas): 0.01008 ± 0.00035 W/m/K
thermal conductivity (252.73 K, 63 kPa, Gas): 0.01019 ± 0.00035 W/m/K
thermal conductivity (253.03 K, 86 kPa, Gas): 0.01015 ± 0.00035 W/m/K
thermal conductivity (253.07 K, 87 kPa, Gas): 0.01011 ± 0.00035 W/m/K
thermal conductivity (253.13 K, 63 kPa, Gas): 0.01017 ± 0.00035 W/m/K
thermal conductivity (253.15 K, Liquid): 0.09063 ± 0.00056 W/m/K
thermal conductivity (253.46 K, 86 kPa, Gas): 0.01017 ± 0.00035 W/m/K
thermal conductivity (253.48 K, 87 kPa, Gas): 0.01016 ± 0.00035 W/m/K
thermal conductivity (253.56 K, 62 kPa, Gas): 0.01022 ± 0.00036 W/m/K
thermal conductivity (261.25 K, 97 kPa, Gas): 0.0104 ± 0.0004 W/m/K
thermal conductivity (261.43 K, 21238 kPa, Liquid): 0.09804 ± 0.0011 W/m/K
thermal conductivity (261.44 K, 15456 kPa, Liquid): 0.09523 ± 0.001 W/m/K
thermal conductivity (261.45 K, 97 kPa, Gas): 0.01036 ± 0.00036 W/m/K
thermal conductivity (261.47 K, 10413 kPa, Liquid): 0.09305 ± 0.001 W/m/K
thermal conductivity (261.48 K, 489 kPa, Liquid): 0.08806 ± 0.00097 W/m/K
thermal conductivity (261.5 K, 80 kPa, Gas): 0.01109 ± 0.00038 W/m/K
thermal conductivity (261.5 K, 5306 kPa, Liquid): 0.09055 ± 0.00099 W/m/K
thermal conductivity (261.51 K, 21243 kPa, Liquid): 0.09768 ± 0.0011 W/m/K
thermal conductivity (261.52 K, 15449 kPa, Liquid): 0.09503 ± 0.001 W/m/K
thermal conductivity (261.55 K, 97 kPa, Gas): 0.01112 ± 0.00038 W/m/K
thermal conductivity (261.55 K, 10410 kPa, Liquid): 0.09274 ± 0.001 W/m/K
thermal conductivity (261.56 K, 107 kPa, Gas): 0.0112 ± 0.0004 W/m/K
thermal conductivity (261.56 K, 489 kPa, Liquid): 0.0878 ± 0.00096 W/m/K
thermal conductivity (261.57 K, 122 kPa, Gas): 0.01124 ± 0.00039 W/m/K
thermal conductivity (261.58 K, 5302 kPa, Liquid): 0.09026 ± 0.00099 W/m/K
thermal conductivity (261.64 K, 98 kPa, Gas): 0.01034 ± 0.00036 W/m/K
thermal conductivity (261.73 K, 80 kPa, Gas): 0.01096 ± 0.00038 W/m/K
thermal conductivity (261.77 K, 97 kPa, Gas): 0.01098 ± 0.00038 W/m/K
thermal conductivity (261.78 K, 105 kPa, Gas): 0.01104 ± 0.00038 W/m/K
thermal conductivity (261.79 K, 120 kPa, Gas): 0.01105 ± 0.00038 W/m/K
thermal conductivity (261.83 K, 21233 kPa, Liquid): 0.09783 ± 0.0011 W/m/K
thermal conductivity (261.85 K, 15453 kPa, Liquid): 0.09507 ± 0.001 W/m/K
thermal conductivity (261.86 K, 98 kPa, Gas): 0.01037 ± 0.00036 W/m/K
thermal conductivity (261.88 K, 10404 kPa, Liquid): 0.09272 ± 0.001 W/m/K
thermal conductivity (261.91 K, 489 kPa, Liquid): 0.08776 ± 0.00096 W/m/K
thermal conductivity (261.93 K, 5298 kPa, Liquid): 0.09023 ± 0.00099 W/m/K
thermal conductivity (261.93 K, 21227 kPa, Liquid): 0.09748 ± 0.0011 W/m/K
thermal conductivity (261.96 K, 80 kPa, Gas): 0.01086 ± 0.00038 W/m/K
thermal conductivity (261.96 K, 128 kPa, Gas): 0.01078 ± 0.00037 W/m/K
thermal conductivity (261.96 K, 15453 kPa, Liquid): 0.09468 ± 0.001 W/m/K
thermal conductivity (261.97 K, 82 kPa, Gas): 0.01083 ± 0.00037 W/m/K
thermal conductivity (261.97 K, 112 kPa, Gas): 0.01074 ± 0.00037 W/m/K
thermal conductivity (261.98 K, 99 kPa, Gas): 0.01077 ± 0.00037 W/m/K
thermal conductivity (262 K, 98 kPa, Gas): 0.01084 ± 0.00037 W/m/K
thermal conductivity (262 K, 10412 kPa, Liquid): 0.0925 ± 0.001 W/m/K
thermal conductivity (262.01 K, 97 kPa, Gas): 0.0109 ± 0.0004 W/m/K
thermal conductivity (262.02 K, 103 kPa, Gas): 0.01092 ± 0.00038 W/m/K
thermal conductivity (262.03 K, 118 kPa, Gas): 0.01094 ± 0.00038 W/m/K
thermal conductivity (262.03 K, 488 kPa, Liquid): 0.08756 ± 0.00096 W/m/K
thermal conductivity (262.04 K, 5301 kPa, Liquid): 0.08998 ± 0.00098 W/m/K
thermal conductivity (262.09 K, 98 kPa, Gas): 0.01037 ± 0.00036 W/m/K
thermal conductivity (262.29 K, 109 kPa, Gas): 0.01076 ± 0.00037 W/m/K
thermal conductivity (262.29 K, 21229 kPa, Liquid): 0.09748 ± 0.0011 W/m/K
thermal conductivity (262.3 K, 81 kPa, Gas): 0.01082 ± 0.00037 W/m/K
thermal conductivity (262.3 K, 98 kPa, Gas): 0.01082 ± 0.00037 W/m/K
